# Assay results as given in PubChem BioAssay (NCI).
#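 Method: 48-hour compound exposure of cells in 96-well plates, five concentrations, linear interpolation of endpoints. GI50 marks 50% less growth. TGI is the concentration that stops growth completely.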
# Experiments:
# Assay in all cases: inhibition of tumour cell growth, NCI panel, 48 h
# 786-0 renal = system: 786-0 renal
# A498 renal = system: A498 renal
# A549 NSCLC = system: A549 NSCLC
# ACHN renal = system: ACHN renal
# BT-549 breast = system: BT-549 breast
# CAKI-1 renal = system: CAKI-1 renal
# CCRF-CEM leukemia = system: CCRF-CEM leukemia
# COLO 205 colon = system: COLO 205 colon
# DU-145 prostate = system: DU-145 prostate
# EKVX NSCLC = system: EKVX NSCLC
# HCC-2998 colon = system: HCC-2998 colon
# HCT-116 colon = system: HCT-116 colon
# HCT-15 colon = system: HCT-15 colon
# HL-60(TB) leukemia = system: HL-60(TB) leukemia
# HOP-62 NSCLC = system: HOP-62 NSCLC
# HOP-92 NSCLC = system: HOP-92 NSCLC
# HS 578T breast = system: HS 578T breast
# HT29 colon = system: HT29 colon
# IGROV1 ovarian = system: IGROV1 ovarian
# K-562 leukemia = system: K-562 leukemia
# KM12 colon = system: KM12 colon
# LOX IMVI melanoma = system: LOX IMVI melanoma
# M14 melanoma = system: M14 melanoma
# MALME-3M melanoma = system: MALME-3M melanoma
# MCF7 breast = system: MCF7 breast
# MDA-MB-231 breast = system: MDA-MB-231 breast
# MDA-MB-435 = system: MDA-MB-435
# MOLT-4 leukemia = system: MOLT-4 leukemia
# NCI-H226 lung = system: NCI-H226 lung
# NCI-H23 lung = system: NCI-H23 lung
# NCI-H460 lung = system: NCI-H460 lung
# NCI-H522 lung = system: NCI-H522 lung
# NCI/ADR-RES ovarian = system: NCI/ADR-RES ovarian
# OVCAR-3 ovarian = system: OVCAR-3 ovarian
# OVCAR-4 ovarian = system: OVCAR-4 ovarian
# OVCAR-5 ovarian = system: OVCAR-5 ovarian
# OVCAR-8 ovarian = system: OVCAR-8 ovarian
# PC-3 prostate = system: PC-3 prostate
# RPMI-8226 leukemia = system: RPMI-8226 leukemia
# RXF 393 renal = system: RXF 393 renal
# SF-268 CNS = system: SF-268 CNS
# SF-295 CNS = system: SF-295 CNS
# SF-539 CNS = system: SF-539 CNS
# SK-MEL-2 melanoma = system: SK-MEL-2 melanoma
# SK-MEL-28 melanoma = system: SK-MEL-28 melanoma
# SK-MEL-5 melanoma = system: SK-MEL-5 melanoma
# SK-OV-3 ovarian = system: SK-OV-3 ovarian
# SN12C renal = system: SN12C renal
# SNB-19 CNS = system: SNB-19 CNS
# SNB-75 CNS = system: SNB-75 CNS
# SW-620 colon = system: SW-620 colon
# T-47D breast = system: T-47D breast
# TK-10 renal = system: TK-10 renal
# U251 CNS = system: U251 CNS
# UACC-257 melanoma = system: UACC-257 melanoma
# UACC-62 melanoma = system: UACC-62 melanoma
# UO-31 renal = system: UO-31 renal
smiles,measurement,setting,value
CC1(C)N=c2cc3c(cc2N1c1ccc(Cl)cc1)=Nc1ccccc1N3c1ccc(Cl)cc1,GI50,786-0 renal,9.66 µM
same,TGI,786-0 renal,> 100 µM
same,GI50,A498 renal,8.37 µM
same,TGI,A498 renal,> 100 µM
same,GI50,A549 NSCLC,5.93 µM
same,TGI,A549 NSCLC,> 100 µM
same,GI50,ACHN renal,3.53 µM
same,TGI,ACHN renal,> 100 µM
same,GI50,BT-549 breast,3.5 µM
same,TGI,BT-549 breast,60.8 µM
same,GI50,CAKI-1 renal,18.2 µM
same,TGI,CAKI-1 renal,> 100 µM
same,GI50,CCRF-CEM leukemia,2.6 µM
same,TGI,CCRF-CEM leukemia,13.9 µM
same,GI50,COLO 205 colon,4.66 µM
same,TGI,COLO 205 colon,21.8 µM
same,GI50,DU-145 prostate,7.45 µM
same,TGI,DU-145 prostate,> 100 µM
same,GI50,EKVX NSCLC,5.31 µM
same,TGI,EKVX NSCLC,> 100 µM
same,GI50,HCC-2998 colon,17.8 µM
same,TGI,HCC-2998 colon,> 100 µM
same,GI50,HCT-116 colon,3.68 µM
same,TGI,HCT-116 colon,> 100 µM
same,GI50,HCT-15 colon,4.26 µM
same,TGI,HCT-15 colon,> 100 µM
same,GI50,HL-60(TB) leukemia,1.74 µM
same,TGI,HL-60(TB) leukemia,4.2 µM
same,GI50,HOP-62 NSCLC,> 100 µM
same,TGI,HOP-62 NSCLC,> 100 µM
same,GI50,HOP-92 NSCLC,1.57 µM
same,TGI,HOP-92 NSCLC,6.59 µM
same,GI50,HS 578T breast,12.2 µM
same,TGI,HS 578T breast,> 100 µM
same,GI50,HT29 colon,7.85 µM
same,TGI,HT29 colon,> 100 µM
same,GI50,IGROV1 ovarian,13.4 µM
same,TGI,IGROV1 ovarian,> 100 µM
same,GI50,K-562 leukemia,1.68 µM
same,TGI,K-562 leukemia,4.95 µM
same,GI50,KM12 colon,6.84 µM
same,TGI,KM12 colon,> 100 µM
same,GI50,LOX IMVI melanoma,5.44 µM
same,TGI,LOX IMVI melanoma,24.8 µM
same,GI50,M14 melanoma,9.32 µM
same,TGI,M14 melanoma,> 100 µM
same,GI50,MALME-3M melanoma,4.79 µM
same,TGI,MALME-3M melanoma,> 100 µM
same,GI50,MCF7 breast,2.41 µM
same,TGI,MCF7 breast,23.4 µM
same,GI50,MDA-MB-231 breast,59.7 µM
same,TGI,MDA-MB-231 breast,> 100 µM
same,GI50,MDA-MB-435,12.1 µM
same,TGI,MDA-MB-435,> 100 µM
same,GI50,MOLT-4 leukemia,1.53 µM
same,TGI,MOLT-4 leukemia,4.04 µM
same,GI50,NCI-H226 lung,4.95 µM
same,TGI,NCI-H226 lung,> 100 µM
same,GI50,NCI-H23 lung,3.16 µM
same,TGI,NCI-H23 lung,27.9 µM
same,GI50,NCI-H460 lung,4.78 µM
same,TGI,NCI-H460 lung,> 100 µM
same,GI50,NCI-H522 lung,3.93 µM
same,TGI,NCI-H522 lung,74.6 µM
same,GI50,NCI/ADR-RES ovarian,5.21 µM
same,TGI,NCI/ADR-RES ovarian,> 100 µM
same,GI50,OVCAR-3 ovarian,4.07 µM
same,TGI,OVCAR-3 ovarian,31.7 µM
same,GI50,OVCAR-4 ovarian,4.33 µM
same,TGI,OVCAR-4 ovarian,> 100 µM
same,GI50,OVCAR-5 ovarian,8.13 µM
same,TGI,OVCAR-5 ovarian,> 100 µM
same,GI50,OVCAR-8 ovarian,4.01 µM
same,TGI,OVCAR-8 ovarian,51.9 µM
same,GI50,PC-3 prostate,2.45 µM
same,TGI,PC-3 prostate,> 100 µM
same,GI50,RPMI-8226 leukemia,2.05 µM
same,TGI,RPMI-8226 leukemia,11.8 µM
same,GI50,RXF 393 renal,1.75 µM
same,TGI,RXF 393 renal,5.77 µM
same,GI50,SF-268 CNS,7.56 µM
same,TGI,SF-268 CNS,> 100 µM
same,GI50,SF-295 CNS,2.08 µM
same,TGI,SF-295 CNS,28.5 µM
same,GI50,SF-539 CNS,8.97 µM
same,TGI,SF-539 CNS,> 100 µM
same,GI50,SK-MEL-2 melanoma,3.9 µM
same,TGI,SK-MEL-2 melanoma,> 100 µM
same,GI50,SK-MEL-28 melanoma,45.3 µM
same,TGI,SK-MEL-28 melanoma,> 100 µM
same,GI50,SK-MEL-5 melanoma,3.64 µM
same,TGI,SK-MEL-5 melanoma,20.3 µM
same,GI50,SK-OV-3 ovarian,> 100 µM
same,TGI,SK-OV-3 ovarian,> 100 µM
same,GI50,SN12C renal,7.9 µM
same,TGI,SN12C renal,> 100 µM
same,GI50,SNB-19 CNS,58.2 µM
same,TGI,SNB-19 CNS,> 100 µM
same,GI50,SNB-75 CNS,2.45 µM
same,TGI,SNB-75 CNS,71.6 µM
same,GI50,SW-620 colon,4.68 µM
same,TGI,SW-620 colon,21.9 µM
same,GI50,T-47D breast,3.91 µM
same,TGI,T-47D breast,> 100 µM
same,GI50,TK-10 renal,3.84 µM
same,TGI,TK-10 renal,67 µM
same,GI50,U251 CNS,8.03 µM
same,TGI,U251 CNS,> 100 µM
same,GI50,UACC-257 melanoma,5.52 µM
same,TGI,UACC-257 melanoma,> 100 µM
same,GI50,UACC-62 melanoma,7.18 µM
same,TGI,UACC-62 melanoma,> 100 µM
same,GI50,UO-31 renal,2.96 µM
same,TGI,UO-31 renal,> 100 µM
